Columns and labels:
Panc-1 cells = assay: MTT cell viability assay, Panc-1; format: cell-based; details: Homo sapiens, PANC-1, 48 h, read-out: Cytotoxicity (IC50) Panc-1, MTT, 48 h; pancreatic cancer cells
Experimental: (§1) Cell viability assay: The cell viability was determined by the standard MTT assay method. Briefly, Panc-1, HCT-116, A549, PC3, MIAPaca-2, HT-29, MDA-MB-231, MCF7 cells, and fR2cells were seeded in 96 well tissue culture plates (Nunc) at a density of 4×10^3 cells per well and treated with varying concentrations of the test compounds in triplicates. DMSO was taken as a vehicle, and its final concentration was maintained at 0.2% in the culture medium. Doxorubicin was employed as a positive control. After 44 h of incubation, MTT dye solution was added into the medium, and cells were incubated for another 4 h at 37° C. in 5% CO2. The amount of colored formazan derivatives formed was measured by taking optical density (OD) using a microplate reader (TECAN, Infinite M200 Pro) at 570 nm, and the percentage of cell viability was calculated. The IC50 values were calculated using GraphPad Prism software (Version 5.0).

[1] = MTT cell viability assay, fR2 normal epithelial cells; format: cell-based, human; details: human, fR2 normal epithelial cells; MTT, 48 h; normal epithelial cell line; read-out: Cytotoxicity (IC50) fR2
Experimental: as §1

fR2 cells = assay: as above; format: cell-based, human; details: in vitro
Experimental: as §1

MIAPaCa-2 cells [2] = assay: Cell scatter assay; format: cell-based, human; details: MIAPaCa-2, 1, 2, 3 μM, 36 h, compared to vehicle and parent molecule
Experimental: Cell scatter assay MIAPaCa-2 cells were seeded onto a 12 well plate at a seeding density of 500 cells/well and kept for 4-5 days, and there was the formation of scatter colonies since the cell line itself is a metastatic cell line. Accordingly, they were treated with 1 μM, 2 μM & 3 μM of compound 2, 2a, 2b, 3, 3a, 4, 4a & 4b for 36 h, and upon termination, they were washed with PBS and observed under an inverted microscope at 20× magnification (FIG. 3).

MIAPaCa-2 cells [3] = assay: Wound healing assay; format: cell-based, human; details: MIAPaCa-2, 1, 2 and 3 μM, 36 h, compared to 2, 2b, 4, 4a, 4b
Experimental: Wound healing assay. MIAPaCa-2 cells (1×10^6) were seeded onto 6 well plates and grown up to more than 90% confluency, and wounds were created with sterile pipette tip (20-200 μL), and the media was replaced with serum-free media. Subsequently, the cells were treated with vehicle (DMSO), compounds 3 μM of 2 and 4, and their derivatives, i.e., 1, 2 and 3 μM of 2a, 2b, 4a, 4b for 36 h. Upon termination, the cells were washed with PBS, and images were captured under a microscope at 20× magnification (FIG. 4).

[4] = test system: Snail-1, Twist-1, Vimentin and E-cadherin in MIAPaCa-2 cells; assay: Western blot of EMT markers; format: cell-based, human; details: 36 h, immunoblot
Experimental: Western Blot analysis. Briefly, MIAPaCa-2 cells were seeded in a 60 mm petri dish and maintained up to 70% confluency; afterward, the cells were treated with compound 2a (0.5, 1.5, 3 & 5 μM) for 36 h. After treatment, the cells were harvested washed thrice with ice-cold PBS and were subjected to protein lysis with lysis buffer (HEPES 1 mM/L, KCl 60 mM/L, NP-40 0.3%, EDTA 1 mM/L, DTT 1 mM/L, sodium orthovanadate 1 mM/L, PMSF 0.1 mM/L and cocktail protease inhibitor). The lysis product was centrifuged at 12000 rpm for 15 min at 4° C. to remove the cellular debris, and the supernatants were collected. Total protein was estimated with the help of the Bradford method. An equal amount of protein was subjected to SDS-PAGE, and consequently, after the protein was separated on SDS-PAGE based on their molecular weight, they were transferred onto the PVDF membrane. The membrane was blocked with 5% BSA and incubated in primary antibody prepared in 5% BSA (dilution ranging from 1:1000-1:2000) for 2-3 h. […] After washing with TBST, the protein expression was quantified by adding a chemiluminescent substrate on the membrane, and the signal obtained was captured in Biomax light x-ray films.
Now this particular derivative was further analysed for its ability to inhibit the molecular signatures of EMT. […]

MIAPaCa-2 cells [5] = assay: Phase contrast microscopy of cell morphology; format: cell-based, human; details: MIAPaCa-2, 0.5 μM to 5 μM
MIAPaCa-2 cells [6] = assay: Matrigel invasion assay, MIAPaCa-2; format: cell-based, human; details: MIAPaCa-2, from 0.5 μM (0.5-5 μM), 36 h
Experimental: Matrigel invasion assay: MIAPaCa-2 and MDA-MB-231 cells (1×10^6) were seeded onto matrigel coated inserts and treated with compound 2a (0.5, 1.5, 3 & 5 μM) for 36 h in 5% CO2 incubator at 37° C. The upper chamber is filled with serum-free media, and the lower half consists of 10% FBS supplemented media, thus creating a gradient of chemoattractant that facilitates the migration of cells. Upon termination, the inserts were washed with PBS, and the non-migratory cells were removed from the upper chamber by using a cotton plug. Further, the cells were fixed with methanol and stained later with 0.2% crystal violet. After drying, the inserts were observed under an inverted microscope at 20× magnification, and images were taken.
Now this particular derivative was further analysed for its ability to inhibit the molecular signatures of EMT. To this end, MIAPaCa-2 cells were treated with 0.5 μM, 1.5 μM, 3 μM and 5 μM of compound 2a for 36 h and were subjected to immunoblotting to study the expression of Snail-1, Twist-1, Vimentin and E-cadherin. […] To analyse more deeply the ability of this compound to affect migration/metastasis, MIAPaCa-2 cells were seeded onto Matrigel coated inserts and were treated with 0.5 μM, 1.5 μM, 3 μM and 5 μM of compound 2a. […] Formation of invadopodia and filopodia (migratory structures) constitutes the fundamental property of cells undergoing migration. […]

For `CCCCCc1cc(O[C@@H]2OC(CO)[C@@H](O)C(O)C2O)c2c(c1)OC(C)(C)[C@@H]1CCC(C)=C[C@@H]21` (stereo partly drawn) [Compound 2a, Δ^9-tetrahydrocannabinol-1-O-β-D-glucopyranoside], the IC50 (Panc-1 cells) was 3000 nM, the IC50 at 48 h [1] was over 100000 nM and the “toxicity towards normal human breast epithelial cells” value (fR2 cells) was “non-toxic”. For the same compound, the cell scattering (MIAPaCa-2 cells [2]) was “typical clumping of scatter cells”, the “anti-migratory properties in wound healing assay” value (MIAPaCa-2 cells [3]) was “most prominent anti-migratory properties” and the “expression of Snail-1, Twist-1 and Vimentin” value ([4]; MIAPaCa-2, 0.5, 1.5, 3 and 5 μM) was “significant down modulation”. The “expression of E-cadherin” value ([4]; MIAPaCa-2, from 1.5 to 5 μM) was “upregulated”, the “mesenchymal (fibroblastic) morphology” value (MIAPaCa-2 cells [5]) was “gradual loss of mesenchymal (fibroblastic) morphology” and the “cellular invasion, Matrigel” value (MIAPaCa-2 cells [6]) was “inhibition of cellular invasion”.

Reference: patent US20240382509A1, “Cannabinoids C- and O-glycosides possessing anti-proliferative and anti-metastatic properties and process for preparation thereof” (Council of Scientific and Industrial Research, priority 2021, published 2024)
